In this assay the target is T1, Endopolygalactyuronase (Chondrostereum purpureum, UniProt P79074).
T1 sequence (P79074 whole entry): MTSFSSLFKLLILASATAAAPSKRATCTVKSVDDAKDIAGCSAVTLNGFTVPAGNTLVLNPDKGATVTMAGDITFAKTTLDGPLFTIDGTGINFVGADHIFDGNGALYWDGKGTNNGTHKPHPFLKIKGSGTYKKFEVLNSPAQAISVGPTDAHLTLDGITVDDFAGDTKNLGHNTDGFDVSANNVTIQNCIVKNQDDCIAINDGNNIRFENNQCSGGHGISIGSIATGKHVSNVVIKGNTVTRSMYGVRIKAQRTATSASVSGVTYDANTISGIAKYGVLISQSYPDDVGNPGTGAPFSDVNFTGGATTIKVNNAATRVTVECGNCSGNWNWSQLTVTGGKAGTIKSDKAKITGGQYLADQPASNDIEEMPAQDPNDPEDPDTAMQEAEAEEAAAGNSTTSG
Kind of assay: Dissociation constant against endo-polygalacturonase 1.

Molecules are shown by their SMILES.

With `CO[C@H]1O[C@@H](C(=O)O)[C@H](S[C@H]2O[C@@H](C(=O)O)[C@H](O[C@H]3O[C@@H](C(=O)O)[C@H](O)[C@H](O)[C@@H]3O)[C@H](O)[C@@H]2O)[C@H](O)[C@@H]1O`, the dissociation constant Kd – broadly, the free concentration of one partner at which half of the binding sites on the other are occupied at equilibrium, for simple one-to-one binding – amounted to 200 nM.

The values above are taken from ChEMBL document CHEMBL1143489, “Design, synthesis, and enzymatic property of a sulfur-substituted analogue of trigalacturonic acid” (Bioorg Med Chem Lett, 2005).
